Measurements reported in article PMC3280214, “Structure Based Discovery of Small Molecules to Regulate the Activity of Human Insulin Degrading Enzyme” (PLoS ONE, 2012).

Target: T1, IDE (Homo sapiens, UniProt P14735)
T1 construct: made in house; host or cells: E. coli BL21
T1 sequence (P14735 1-1019): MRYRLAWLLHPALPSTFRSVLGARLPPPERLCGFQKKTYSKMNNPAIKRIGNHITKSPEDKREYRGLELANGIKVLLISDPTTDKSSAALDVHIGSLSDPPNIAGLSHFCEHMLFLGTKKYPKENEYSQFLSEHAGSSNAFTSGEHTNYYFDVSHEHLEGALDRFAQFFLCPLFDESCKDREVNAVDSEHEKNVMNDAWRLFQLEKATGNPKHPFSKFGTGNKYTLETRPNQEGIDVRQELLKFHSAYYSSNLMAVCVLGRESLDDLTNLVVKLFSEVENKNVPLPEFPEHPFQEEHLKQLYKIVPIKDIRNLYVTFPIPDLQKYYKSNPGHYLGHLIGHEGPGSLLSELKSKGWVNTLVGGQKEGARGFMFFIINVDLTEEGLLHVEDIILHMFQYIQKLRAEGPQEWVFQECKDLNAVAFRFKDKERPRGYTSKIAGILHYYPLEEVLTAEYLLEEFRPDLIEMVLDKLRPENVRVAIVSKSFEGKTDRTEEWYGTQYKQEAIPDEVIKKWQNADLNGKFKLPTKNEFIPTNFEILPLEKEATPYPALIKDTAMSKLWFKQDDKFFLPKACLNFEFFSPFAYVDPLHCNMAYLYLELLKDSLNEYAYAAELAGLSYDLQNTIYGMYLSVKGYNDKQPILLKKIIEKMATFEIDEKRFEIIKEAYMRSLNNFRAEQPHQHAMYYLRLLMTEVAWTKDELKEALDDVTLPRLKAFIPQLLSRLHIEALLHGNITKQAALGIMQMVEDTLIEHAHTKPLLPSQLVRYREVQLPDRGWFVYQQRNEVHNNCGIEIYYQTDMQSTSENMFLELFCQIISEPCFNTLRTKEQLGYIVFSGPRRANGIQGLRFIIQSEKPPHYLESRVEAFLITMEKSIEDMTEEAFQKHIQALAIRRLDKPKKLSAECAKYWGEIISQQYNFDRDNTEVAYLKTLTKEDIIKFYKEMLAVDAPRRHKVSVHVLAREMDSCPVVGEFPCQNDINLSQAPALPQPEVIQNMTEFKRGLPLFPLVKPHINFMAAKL
Experiment: Enzymatic competition assay with bradykinin
Format: biochemical
Details: bradykinin 2.1, 4.2 and 8.4 mM; varying D10 (0–50 µM)
Excerpt: Since D10 has been found as the strongest activator of IDE towards the proteolysis of insulin, we analyzed the binding site of the compound D10 for the further analysis. According to the computational results, D10 binds to Gln363 at the IDE exosite and His332 (Fig. 1D). We carried out site-directed mutagenesis by replacing these amino acids into Ala in order to verify that D10 indeed binds to this region via these amino acids. We first mutated Gln363 to Ala and then expressed and purified mutant protein through nickel resin. The effect of D10 on the proteolytic activity of mutant IDE (Gln363Ala) was measured towards FITC-insulin-mAb degradation. […] The activation was about 49-fold in the presence of D10 with wild type IDE (Fig. 2B). Although mutant IDE activity was less responsive to D10 compound compared to wild type IDE, it appeared as if D10 were interacting with IDE through […] and could enhance the activity of mutant IDE. Therefore, we generated a double mutant IDE (Gln363Ala, His332Ala) in order to eliminate the binding of D10 to the exosite region completely. […]
The effect of the bradykinin on the clearance of insulin was measured in the presence of compound D10. […] The fluorescence increase was monitored by using Fluoroskan Ascent FL microplate reader (Thermo).

## Cc1nn(-c2ccccc2)c2nc(-c3cccc([N+](=O)[O-])c3)n3c4ccccc4nc3c2c1=O [Compound D10]
  decrease of insulin degradation in presence of compound when bradykinin is added: about 50%
